This assay relates to rats. The assay can be described thus: Forced Swimm Stress model, immobilization period. In kind it is in vivo. The following applies: 30 mg/kg perorally, once a day for nine days. How it is done: The stress-reducing effects of lavender oil was tested in rats by the so-called “Forced Swimm Stress” model (R. D. Porsolt et al. (1978), Eur. J. Pharmacol. 47, 379-391). The stress reaction experimentally elicited by this test in rats is a recognized method for testing stress-induced behaviour. The principle of the test system used involves that rats being put into a water-filled glass cylinder which they can not leave independently, fall into a still state after a short period of swimming (immobilization period). This immobility is interpreted as a reaction to recognizing the hopelessness of the situation (cf. Example 2).
In order to test the stress-reducing effects of lavender oil, rats were treated over a period of nine days in total with differently high dosages of lavender oil according to European Pharmacopoeia, edition 4 (WS® 1265) once a day. For comparison purposes some animals were treated either with the tricyclic antidepressive agent imipramine used in stress therapy or with a control solution without an active ingredient. On the seventh day of the treatment, the animals were placed into the water-filled glass cylinder for 15 minutes for familiarization purposes. At the final day of the treatment, the animals were placed into the graduated cylinder again for a period of 5 minutes and the period of immobility was measured as a measure of the stress reaction.

In general, inhibition refers to the relative decrease from the control value, in per cent. Low readings indicate a response near the control, high ones a response far below the control. With `CN(C)CCCN1c2ccccc2CCc2ccccc21` [imipramine], the immobilization period amounted to 48 ± 6 s. Besides, the inhibition (versus control) was determined as 67%.
